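Where inhibition never reached the appropriate level, the endpoint shown equals the highest concentration tested. Otherwise, values were interpolated linearly from a five-concentration, 48-hour dose response in 96-well plates. Abbreviation: GI50, concentration required for 50% inhibition of growth.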 Active and inactive are the calls of the source. No stated cut-off is given here; in the data, active = GI50 up to about 1.1 µM and inactive = higher.
Legend:
Assay in all cases: DTP human tumour cell line panel, 48 h
786-0 = system: 786-0
A498 = system: A498
A549 = system: A549
ACHN = system: ACHN
BT-549 = system: BT-549
CAKI-1 = system: CAKI-1
CCRF-CEM = system: CCRF-CEM
COLO 205 = system: COLO 205
DU-145 = system: DU-145
EKVX = system: EKVX
HCC 2998 = system: HCC 2998
HCT-116 = system: HCT-116
HCT-15 = system: HCT-15
HL-60 = system: HL-60
HOP-62 = system: HOP-62
HT-29 = system: HT-29
Hs-578T = system: Hs-578T
IGROV-1 = system: IGROV-1
K562 = system: K562
KM12 = system: KM12
LOX IMVI = system: LOX IMVI
M14 = system: M14
MCF7 = system: MCF7
MDA-MB-231 = system: MDA-MB-231
MDA-MB-435 = system: MDA-MB-435
MDA-N = system: MDA-N
MOLT-4 = system: MOLT-4
Malme-3M = system: Malme-3M
NCI-H226 = system: NCI-H226
NCI-H23 = system: NCI-H23
NCI-H460 = system: NCI-H460
NCI-H522 = system: NCI-H522
OVCAR-8 = system: OVCAR-8
PC-3 = system: PC-3
RPMI-8226 = system: RPMI-8226
SF-268 = system: SF-268
SF-295 = system: SF-295
SF-539 = system: SF-539
SK-MEL-28 = system: SK-MEL-28
SK-MEL-5 = system: SK-MEL-5
SK-OV-3 = system: SK-OV-3
SN12C = system: SN12C
SNB-19 = system: SNB-19
SNB-75 = system: SNB-75
SR = system: SR
SW-620 = system: SW-620
T47D = system: T47D
TK-10 = system: TK-10
UACC-257 = system: UACC-257
UACC-62 = system: UACC-62
UO-31 = system: UO-31
NCI/ADR-RES = system: NCI/ADR-RES
OVCAR-3 = system: OVCAR-3
OVCAR-4 = system: OVCAR-4
OVCAR-5 = system: OVCAR-5
RXF 393 = system: RXF 393
SK-MEL-2 = system: SK-MEL-2
U-251 = system: U-251

Measured: GI50

Cc1nn(C(=O)Cc2ccccc2)c2c1C(c1ccccc1)SC(=N)N2 (stereo not drawn)
> 100 µM: HCT-15
inactive: 786-0 > 100 µM | A498 > 100 µM | A549 > 100 µM | ACHN > 100 µM | BT-549 > 100 µM | CAKI-1 > 100 µM | CCRF-CEM > 100 µM | COLO 205 > 100 µM | DU-145 > 100 µM | EKVX > 100 µM | HCC 2998 > 100 µM | HCT-116 > 100 µM | HL-60 > 100 µM | HOP-62 > 100 µM | HT-29 > 100 µM | Hs-578T > 100 µM | IGROV-1 > 100 µM | K562 > 100 µM | KM12 > 100 µM | LOX IMVI > 100 µM | M14 > 100 µM | MCF7 > 100 µM | MDA-MB-231 > 100 µM | MDA-MB-435 > 100 µM | MDA-N > 100 µM | MOLT-4 > 100 µM | Malme-3M > 100 µM | NCI-H226 > 100 µM | NCI-H23 > 100 µM | NCI-H460 > 100 µM | NCI-H522 > 100 µM | OVCAR-8 > 100 µM | PC-3 > 100 µM | RPMI-8226 > 100 µM | SF-268 > 100 µM | SF-295 > 100 µM | SF-539 > 100 µM | SK-MEL-28 > 100 µM | SK-MEL-5 > 100 µM | SK-OV-3 > 100 µM | SN12C > 100 µM | SNB-19 > 100 µM | SNB-75 43.5 µM | SR > 100 µM | SW-620 > 100 µM | T47D > 100 µM | TK-10 > 100 µM | UACC-257 > 100 µM | UACC-62 > 100 µM | UO-31 > 100 µM

CC(C)(C)[Si](C)(C)OCCOCn1cc(F)c(=O)[nH]c1=O
inactive: 786-0 > 100 µM | A498 > 100 µM | A549 > 100 µM | ACHN > 100 µM | BT-549 > 100 µM | CAKI-1 > 100 µM | CCRF-CEM > 100 µM | COLO 205 > 100 µM | DU-145 36.5 µM | EKVX > 100 µM | HCT-116 > 100 µM | HL-60 > 100 µM | HOP-62 > 100 µM | HT-29 > 100 µM | Hs-578T > 100 µM | IGROV-1 > 100 µM | K562 > 100 µM | KM12 > 100 µM | LOX IMVI > 100 µM | M14 > 100 µM | MCF7 > 100 µM | MDA-MB-435 > 100 µM | MDA-N > 100 µM | MOLT-4 > 100 µM | Malme-3M > 100 µM | NCI-H226 > 100 µM | NCI-H23 > 100 µM | NCI-H460 > 100 µM | NCI-H522 > 100 µM | NCI/ADR-RES > 100 µM | OVCAR-3 > 100 µM | OVCAR-4 > 100 µM | OVCAR-5 > 100 µM | OVCAR-8 > 100 µM | PC-3 > 100 µM | RPMI-8226 > 100 µM | RXF 393 > 100 µM | SF-268 > 100 µM | SF-295 > 100 µM | SF-539 > 100 µM | SK-MEL-2 > 100 µM | SK-MEL-5 > 100 µM | SK-OV-3 > 100 µM | SN12C > 100 µM | SNB-19 > 100 µM | SNB-75 > 100 µM | SR > 100 µM | SW-620 > 100 µM | T47D 69 µM | TK-10 > 100 µM | U-251 > 100 µM | UACC-257 > 100 µM | UACC-62 > 100 µM | UO-31 > 100 µM
> 100 µM: HCT-15

O=C(O)Cc1cccc2c(=O)c3cccc([N+](=O)[O-])c3oc12
inactive: 786-0 > 100 µM | A498 > 100 µM | A549 > 100 µM | ACHN > 100 µM | BT-549 > 100 µM | CAKI-1 > 100 µM | CCRF-CEM > 100 µM | COLO 205 > 100 µM | DU-145 > 100 µM | EKVX > 100 µM | HCC 2998 > 100 µM | HCT-116 > 100 µM | HL-60 > 100 µM | HOP-62 > 100 µM | HT-29 > 100 µM | Hs-578T > 100 µM | IGROV-1 > 100 µM | K562 > 100 µM | KM12 > 100 µM | LOX IMVI > 100 µM | M14 > 100 µM | MCF7 > 100 µM | MDA-MB-231 > 100 µM | MDA-MB-435 > 100 µM | MDA-N > 100 µM | MOLT-4 > 100 µM | Malme-3M > 100 µM | NCI-H226 > 100 µM | NCI-H23 > 100 µM | NCI-H460 > 100 µM | NCI-H522 > 100 µM | OVCAR-3 > 100 µM | OVCAR-4 > 100 µM | OVCAR-5 > 100 µM | OVCAR-8 > 100 µM | PC-3 > 100 µM | RPMI-8226 > 100 µM | RXF 393 > 100 µM | SF-268 > 100 µM | SF-295 > 100 µM | SF-539 > 100 µM | SK-MEL-28 > 100 µM | SK-MEL-2 > 100 µM | SK-MEL-5 > 100 µM | SK-OV-3 > 100 µM | SN12C > 100 µM | SNB-19 > 100 µM | SNB-75 > 100 µM | SR > 100 µM | SW-620 > 100 µM | T47D > 100 µM | TK-10 > 100 µM | U-251 > 100 µM | UACC-257 > 100 µM | UACC-62 > 100 µM | UO-31 > 100 µM
> 100 µM: HCT-15

From ChEMBL document CHEMBL1201862, “PubChem BioAssay data set” (2004)
